Assay results as given in patent publication US4451461A, “10-(1-Aza-[2,2,2)-bicyclo-3-octyl]-10H-2-phenothiazinesulfonamide and derivatives thereof” (Pharmindustrie, priority 1981, dated 1984).

Tested on: gastric hypersecretion stimulated by pentagastrine (Heidenhein pouch dogs)
Assay: Anti-secretory activity against pentagastrine-stimulated gastric hypersecretion in dogs fitted with the Heidenhein pouch
Assay type: in vivo, dog (mongrels)
Settings: for ED50 (dose which reduces the hourly acid output by 50% during the 3rd or 4th hour in relation to the second hour of perfusion): p.o., gelatine capsule, 1.5 h after start of pentagastrine perfusion, dogs, doses expressed as base
Experimental: The anti-secretory activity of the compounds of formula (I) according to the invention has been investigated in cases of gastric hypersecretion which has been stimulated by pentagastrine in dogs fitted with the Heidenhein pouch.
Three mongrels, fitted with the Heidenhein pouch and not having eaten for 18 hours, were given a veinous perfusion of […] pentagastrine, at a volume of 30 ml/hour for 4 hours. The secretion in the pouch was collected in a bottle which was changed every 15 minutes. 1.5 hours after commencement of the perfusion, the product to be investigated was administered orally in an h°000 gelatine-coated capsule. The effective dose 50% (ED50) is the dose which reduces the hourly acid output by 50% during the 3rd or 4th hour of the experiment in relation to the acid output of the second hour of perfusion. The doses are expressed as a product in basic form.

SMILES	ED50 (dose which reduces the hourly acid output by 50% during the 3rd or 4th hour in relation to the second hour of perfusion)	activity compared with cimetidine (in words) (Heidenhein pouch dogs, oral, vs cimetidine)
CN/C(=N/CCSCc1nc[nH]c1C)NC#N [Cimetidine]	2.3 mg/kg	–
CNS(=O)(=O)c1ccc2c(c1)N(C1CN3CCC1CC3)c1ccccc1S2 (stereo not shown) [Example 2, N-METHYL-10-[1-AZA-(2,2,2)-BICYCLO-3-OCTYL]-10H-2-PHENOTHIAZINESULFONAMIDE]	0.7 mg/kg	more active than cimetidine
CN(C)S(=O)(=O)c1ccc2c(c1)N(C1CN3CCC1CC3)c1ccccc1S2 (stereo not shown) [N,N-dimethyl-10-[1-aza-(2,2,2)-bicyclo-3-octyl]-10H-2-phenothiazinesulfonamide]	1.25 mg/kg	–
